Activity calls are given as the source filed them.
Assays:
[1] = target: Nuclear receptor subfamily 5 group A member 2 (Homo sapiens, UniProt O00482); type: functional, cell-based;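 also: HEK293T cells transfected with LRH-1 and a StAR promoter luciferase reporter; potency for inhibitors that lower LRH-1 driven reporter light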
[2] = StAR promoter reporter inhibition counter-screen, dose response, counter-screen for LRH-1 inverse agonist project, cell-based, luminescence, luciferase reporter (AID 651969); type: functional
Steroidogenic factor 1 = Steroidogenic factor 1 (Homo sapiens, UniProt Q13285); test: Counterscreen for inverse agonists of the liver receptor homolog-1 (LRH-1; NR5A2): Luminescence-based cell-based high throughput dose response assay to identify inverse agonists of the Steroidogenic Factor 1 Nuclear Receptor (SF1; NR5A1).; type: functional
Albumin = Albumin (Bos taurus, UniProt P02769); test: Counterscreen for inhibitors of T-cell receptor (TCR)-CD3 interaction: Fluorescence-based biochemical high throughput dose response assay to identify inhibitors of T-cell receptor (TCR)-CD3 interaction using a TAMRA-labeled BSA probe.; type: functional
[3] = cytotoxicity toward NIH3T3 fibroblasts, dose response, counter-screen, cell-based, ATP luminescence, mouse fibroblasts (AID 2010); type: functional;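 also: cells exposed to compound for about 90 hours before reading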
[4] = inhibitors of intracellular T. cruzi replication, confirmation, NIH3T3 host cells, beta-gal luminescence (AID 2044); type: functional, cell-based;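 also: intracellular parasites grown in NIH/3T3 mouse fibroblasts as host cells; luminescent beta-galactosidase reporter signal from transgenic T. cruzi replicating inside host cells; inhibitors lower the luminescence signal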
Interleukin-8 = target: T1, Interleukin-8 (Homo sapiens, UniProt P10145); test: Dose Response confirmation of uHTS small molecule hits for cystic fibrosis induced NFkb Inhibitors in a PAF-induced IL8 counterscreen.; type: functional; settings: read-out: IC50_Mean
T1 sequence (P10145 whole entry): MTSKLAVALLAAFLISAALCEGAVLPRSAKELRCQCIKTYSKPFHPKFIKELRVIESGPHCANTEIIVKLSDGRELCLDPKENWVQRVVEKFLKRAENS

[5] = target: T2, Trace amine-associated receptor 1 (Homo sapiens, UniProt Q96RJ0); test: Fluorescence-based cell-based high throughput dose response assay to identify agonists of the human trace amine associated receptor 1 (TAAR1).; type: functional
T2 sequence (Q96RJ0 whole entry): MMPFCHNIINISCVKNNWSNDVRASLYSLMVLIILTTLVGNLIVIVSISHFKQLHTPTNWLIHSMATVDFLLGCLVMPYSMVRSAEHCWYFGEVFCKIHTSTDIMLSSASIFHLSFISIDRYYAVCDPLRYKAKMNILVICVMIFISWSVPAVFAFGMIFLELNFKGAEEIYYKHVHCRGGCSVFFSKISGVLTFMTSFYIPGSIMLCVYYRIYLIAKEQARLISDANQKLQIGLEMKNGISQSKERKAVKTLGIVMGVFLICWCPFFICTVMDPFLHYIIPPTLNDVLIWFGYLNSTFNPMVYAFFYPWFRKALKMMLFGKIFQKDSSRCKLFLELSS

[6] = target: T2, Trace amine-associated receptor 1; test: Counterscreen for agonists of the human trace amine associated receptor 1 (hTAAR1): Fluorescence-based cell-based high throughput dose response assay to identify hTAAR1 agonist that also desensitize TAAR1 receptor response.; type: functional
cells [7] = type: functional, cell-based
cells [8] = type: functional, cell-based; remark: listed apart in the source
Protein Wnt-3a = Protein Wnt-3a (Mus musculus, UniProt P27467); test: SAR analysis of small molecule antagonists of Gli-SUFU in a Wnt3a luminescent reporter assay.; type: functional
[9] = target: Photoreceptor-specific nuclear receptor (Homo sapiens, UniProt Q9Y5X4); type: functional, cell-based;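 also: CHO-S cells with Gal4-NCOR and VP16-NR2E3 two-hybrid luciferase reporter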
P388/ADR = test: cells; type: functional; settings: Mus musculus
SN12K1 = test: cells; type: functional; settings: Homo sapiens
P388 = test: cells; type: functional; settings: Mus musculus
[10] = target: T3, DNA repair protein RAD52 homolog (Homo sapiens, UniProt P43351); type: functional, biochemical
T3 sequence (P43351 whole entry): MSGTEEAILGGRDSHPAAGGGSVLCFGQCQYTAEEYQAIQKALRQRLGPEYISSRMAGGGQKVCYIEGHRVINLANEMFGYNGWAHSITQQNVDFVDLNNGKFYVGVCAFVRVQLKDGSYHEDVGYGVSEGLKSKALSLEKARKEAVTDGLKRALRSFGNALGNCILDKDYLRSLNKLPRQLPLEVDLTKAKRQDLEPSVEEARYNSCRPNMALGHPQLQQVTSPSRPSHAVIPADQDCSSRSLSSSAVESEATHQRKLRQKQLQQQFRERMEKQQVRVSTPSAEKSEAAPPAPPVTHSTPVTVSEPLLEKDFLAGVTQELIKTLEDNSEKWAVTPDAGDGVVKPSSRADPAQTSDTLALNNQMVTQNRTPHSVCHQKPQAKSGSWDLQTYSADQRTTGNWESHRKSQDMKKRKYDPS

Genome polyprotein = Genome polyprotein (dengue virus type 2, UniProt P29990); test: Dengue-2 NS5 methyltransferase inhibitors, primary screen, biochemical, confirmation dose response (AID 588689); type: functional
[11] = target: T4, Tyrosyl-DNA phosphodiesterase 2 (Homo sapiens, UniProt O95551); test: human TDP2 enzyme inhibitors, dose response, biochemical, epi absorbance, IC50 (AID 743297)
T4 sequence (O95551 whole entry): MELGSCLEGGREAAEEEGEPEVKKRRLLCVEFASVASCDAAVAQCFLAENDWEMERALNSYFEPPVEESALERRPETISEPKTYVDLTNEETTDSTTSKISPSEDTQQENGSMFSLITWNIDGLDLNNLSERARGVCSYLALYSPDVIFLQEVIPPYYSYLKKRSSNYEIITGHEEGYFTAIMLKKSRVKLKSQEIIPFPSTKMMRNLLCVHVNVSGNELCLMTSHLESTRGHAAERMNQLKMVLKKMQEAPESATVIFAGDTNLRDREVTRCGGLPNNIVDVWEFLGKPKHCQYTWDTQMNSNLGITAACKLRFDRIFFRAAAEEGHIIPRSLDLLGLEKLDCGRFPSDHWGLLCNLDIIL

[12] = target: T5, Mitochondrial peptide methionine sulfoxide reductase (Bos taurus, UniProt P54149); type: functional;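 also: absorbance read-out, biochemical high-throughput dose-response screen for MsrA inhibitors, confirmatory; recombinant bovine MsrA coupled to E. coli TrxB with NADPH and selenocystamine; potency is for inhibitors of MsrA activity on DMSO substrate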
T5 sequence (P54149 whole entry): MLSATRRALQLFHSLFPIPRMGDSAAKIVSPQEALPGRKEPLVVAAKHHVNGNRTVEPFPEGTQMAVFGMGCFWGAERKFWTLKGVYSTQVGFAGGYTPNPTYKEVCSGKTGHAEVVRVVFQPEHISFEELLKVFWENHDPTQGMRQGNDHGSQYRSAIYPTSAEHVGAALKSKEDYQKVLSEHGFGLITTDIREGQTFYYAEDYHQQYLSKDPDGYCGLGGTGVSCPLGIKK

[13] = CEM21 lymphoblast cell cytotoxicity, dose response, cytotoxicity control for viral fusion inhibitor project, CellTiter-Glo luminescence, cherry-picked (AID 652042); type: functional, cell-based;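 also: potency for signal decrease meaning cytotoxicity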
[14] = off-target signal loss in HeLa-CEM21 co-culture – HeLa F-luc CTL cells, cherry-picked, counter-screen for HIV-1 Env fusion inhibitor project, dose response (AID 652040); type: functional, cell-based;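 also: potency for signal decrease marking cytotoxic or nonspecific inhibition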
[15] = ZM109 Env clade C HIV-1 fusion inhibitors, dose response, HeLa effector, CEM target cells, luciferase, cherry-pick (AID 652058); type: functional, cell-based
[16] = inhibitors of clade B AD8 Env fusion, dose response, cell-based, cherry-pick (AID 652062); type: functional;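 also: luciferase signal from cell-cell fusion driven by HIV-1 clade B AD8 Env; potency is for inhibitors of fusion seen as a drop in luminescence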
[17] = inhibitors of HIV Env-driven cell fusion, dose response, cherry-pick (AID 652057); type: functional, cell-based
Nonstructural protein 1 = Nonstructural protein 1 (Influenza A virus, UniProt Q194T2); type: functional, Influenza A virus (A/California/07/2009(H1N1))
[18] = THP-1 cell cytotoxicity, dose response, cytotoxicity control for non-replicating M. tuberculosis project (AID 489025); type: functional
Cytochrome P450 2C9 = Cytochrome P450 2C9 (Homo sapiens, UniProt P11712)
Large T antigen = Large T antigen (Simian virus 40, UniProt P03070); type: functional, Betapolyomavirus macacae;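 also: Confirmatory-stage PubChem screen for compounds that inhibit SV40 T antigen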
[19] = target: T6, Rac GTPase-activating protein 1 (Homo sapiens, UniProt Q9H0H5); test: MgcRacGAP GTPase-activating activity inhibitors, confirmation, biochemical, ADP Hunter fluorescence, primary and confirmatory (AID 624330); type: functional
T6 sequence (Q9H0H5 whole entry): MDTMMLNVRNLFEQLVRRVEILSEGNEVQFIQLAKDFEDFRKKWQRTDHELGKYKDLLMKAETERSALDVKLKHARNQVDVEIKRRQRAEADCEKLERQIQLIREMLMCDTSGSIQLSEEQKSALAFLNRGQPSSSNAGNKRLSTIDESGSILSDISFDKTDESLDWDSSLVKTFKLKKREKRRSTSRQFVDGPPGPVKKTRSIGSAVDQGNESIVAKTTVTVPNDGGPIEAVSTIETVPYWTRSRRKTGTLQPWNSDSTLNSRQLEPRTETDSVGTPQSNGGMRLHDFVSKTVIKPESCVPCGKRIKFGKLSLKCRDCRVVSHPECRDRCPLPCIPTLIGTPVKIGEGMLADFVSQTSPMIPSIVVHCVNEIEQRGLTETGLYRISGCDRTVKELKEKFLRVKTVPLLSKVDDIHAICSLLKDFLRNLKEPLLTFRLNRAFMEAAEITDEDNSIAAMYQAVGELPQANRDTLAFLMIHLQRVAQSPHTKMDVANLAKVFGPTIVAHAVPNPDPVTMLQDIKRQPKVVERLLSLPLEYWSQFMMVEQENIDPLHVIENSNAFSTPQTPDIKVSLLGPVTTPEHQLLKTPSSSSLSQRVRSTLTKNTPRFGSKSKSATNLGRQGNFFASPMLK

[20] = HeLa cell cytotoxicity, dose response, cytotoxicity control for MgcRacGAP inhibitor project (AID 624300); type: functional

Sequence of Nuclear receptor subfamily 5 group A member 2 (O00482 whole entry): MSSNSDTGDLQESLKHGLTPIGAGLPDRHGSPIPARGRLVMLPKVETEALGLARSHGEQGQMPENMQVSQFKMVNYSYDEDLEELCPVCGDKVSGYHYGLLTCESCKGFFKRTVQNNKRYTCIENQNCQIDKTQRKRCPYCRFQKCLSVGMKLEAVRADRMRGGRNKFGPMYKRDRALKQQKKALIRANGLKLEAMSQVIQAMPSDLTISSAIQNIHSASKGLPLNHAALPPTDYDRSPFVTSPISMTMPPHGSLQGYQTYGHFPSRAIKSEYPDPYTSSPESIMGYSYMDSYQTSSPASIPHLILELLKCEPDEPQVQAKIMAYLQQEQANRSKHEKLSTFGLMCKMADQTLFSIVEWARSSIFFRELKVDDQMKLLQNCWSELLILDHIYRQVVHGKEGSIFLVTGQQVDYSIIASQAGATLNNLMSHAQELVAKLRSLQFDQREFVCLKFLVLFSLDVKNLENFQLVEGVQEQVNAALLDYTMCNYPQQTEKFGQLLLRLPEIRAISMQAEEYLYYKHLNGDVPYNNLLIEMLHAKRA
Sequence of Protein Wnt-3a (P27467 whole entry, the tested form may be a part): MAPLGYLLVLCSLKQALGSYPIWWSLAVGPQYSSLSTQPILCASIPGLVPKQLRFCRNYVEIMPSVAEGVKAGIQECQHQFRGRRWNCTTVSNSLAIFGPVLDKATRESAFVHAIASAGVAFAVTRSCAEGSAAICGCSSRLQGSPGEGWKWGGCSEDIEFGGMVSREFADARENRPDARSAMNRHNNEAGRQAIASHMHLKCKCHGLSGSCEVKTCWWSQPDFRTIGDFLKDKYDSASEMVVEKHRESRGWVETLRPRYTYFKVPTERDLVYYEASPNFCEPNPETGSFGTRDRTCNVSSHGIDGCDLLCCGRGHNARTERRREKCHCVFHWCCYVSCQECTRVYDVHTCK
Sequence of Albumin (P02769 whole entry): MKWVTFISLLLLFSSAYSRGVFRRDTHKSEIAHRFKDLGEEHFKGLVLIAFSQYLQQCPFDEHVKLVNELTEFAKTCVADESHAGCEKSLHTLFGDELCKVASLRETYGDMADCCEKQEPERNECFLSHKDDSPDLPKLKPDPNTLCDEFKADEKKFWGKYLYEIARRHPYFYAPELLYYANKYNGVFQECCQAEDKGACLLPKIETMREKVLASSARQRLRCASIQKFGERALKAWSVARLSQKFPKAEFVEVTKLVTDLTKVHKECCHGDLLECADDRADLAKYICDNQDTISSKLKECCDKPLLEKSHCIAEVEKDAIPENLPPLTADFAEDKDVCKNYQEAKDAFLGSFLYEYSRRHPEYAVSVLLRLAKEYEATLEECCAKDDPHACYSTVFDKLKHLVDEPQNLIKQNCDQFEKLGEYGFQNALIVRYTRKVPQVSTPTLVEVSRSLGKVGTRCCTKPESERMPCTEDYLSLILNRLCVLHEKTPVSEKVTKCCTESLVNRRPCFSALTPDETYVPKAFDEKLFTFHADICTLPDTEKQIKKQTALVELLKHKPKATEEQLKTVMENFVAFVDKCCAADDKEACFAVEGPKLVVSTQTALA
Sequence of Steroidogenic factor 1 (Q13285 whole entry): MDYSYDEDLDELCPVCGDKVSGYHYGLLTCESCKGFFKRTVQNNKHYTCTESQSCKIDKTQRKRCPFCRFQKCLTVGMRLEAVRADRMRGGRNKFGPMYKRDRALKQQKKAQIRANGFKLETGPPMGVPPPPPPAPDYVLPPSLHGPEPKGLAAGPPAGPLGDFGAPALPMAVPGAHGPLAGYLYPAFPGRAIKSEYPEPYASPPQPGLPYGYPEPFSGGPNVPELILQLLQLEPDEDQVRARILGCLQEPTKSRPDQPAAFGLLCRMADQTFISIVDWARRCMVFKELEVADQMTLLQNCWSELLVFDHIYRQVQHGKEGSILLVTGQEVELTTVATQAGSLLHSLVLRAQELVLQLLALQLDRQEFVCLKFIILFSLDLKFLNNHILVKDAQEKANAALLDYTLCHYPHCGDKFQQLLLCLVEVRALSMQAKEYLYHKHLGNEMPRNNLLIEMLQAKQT
Sequence of Genome polyprotein (P29990 2492-3391 limits assumed): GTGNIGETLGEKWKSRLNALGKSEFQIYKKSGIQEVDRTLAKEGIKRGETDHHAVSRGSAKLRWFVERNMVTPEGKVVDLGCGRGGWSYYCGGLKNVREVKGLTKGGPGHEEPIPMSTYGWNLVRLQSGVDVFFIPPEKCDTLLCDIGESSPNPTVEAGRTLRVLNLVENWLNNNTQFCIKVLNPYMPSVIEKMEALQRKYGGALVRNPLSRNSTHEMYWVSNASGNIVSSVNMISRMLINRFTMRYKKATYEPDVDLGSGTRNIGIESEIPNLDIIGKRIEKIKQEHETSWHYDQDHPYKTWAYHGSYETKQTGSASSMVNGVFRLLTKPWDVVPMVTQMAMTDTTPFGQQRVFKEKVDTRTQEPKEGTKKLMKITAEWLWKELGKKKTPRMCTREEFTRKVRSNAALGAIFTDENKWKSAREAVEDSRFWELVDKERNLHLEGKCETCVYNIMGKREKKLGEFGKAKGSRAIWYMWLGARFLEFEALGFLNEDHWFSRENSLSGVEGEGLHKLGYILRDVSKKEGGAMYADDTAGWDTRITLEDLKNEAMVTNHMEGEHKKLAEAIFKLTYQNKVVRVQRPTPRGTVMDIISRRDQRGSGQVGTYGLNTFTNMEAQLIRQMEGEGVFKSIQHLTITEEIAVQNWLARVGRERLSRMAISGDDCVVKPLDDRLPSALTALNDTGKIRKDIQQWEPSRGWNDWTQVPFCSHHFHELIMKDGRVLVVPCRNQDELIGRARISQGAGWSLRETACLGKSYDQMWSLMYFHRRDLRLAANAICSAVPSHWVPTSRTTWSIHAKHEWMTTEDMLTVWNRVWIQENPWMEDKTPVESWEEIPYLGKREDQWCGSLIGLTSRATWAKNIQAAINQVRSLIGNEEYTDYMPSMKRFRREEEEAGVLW
Sequence of Photoreceptor-specific nuclear receptor (Q9Y5X4 whole entry, the tested form may be a part): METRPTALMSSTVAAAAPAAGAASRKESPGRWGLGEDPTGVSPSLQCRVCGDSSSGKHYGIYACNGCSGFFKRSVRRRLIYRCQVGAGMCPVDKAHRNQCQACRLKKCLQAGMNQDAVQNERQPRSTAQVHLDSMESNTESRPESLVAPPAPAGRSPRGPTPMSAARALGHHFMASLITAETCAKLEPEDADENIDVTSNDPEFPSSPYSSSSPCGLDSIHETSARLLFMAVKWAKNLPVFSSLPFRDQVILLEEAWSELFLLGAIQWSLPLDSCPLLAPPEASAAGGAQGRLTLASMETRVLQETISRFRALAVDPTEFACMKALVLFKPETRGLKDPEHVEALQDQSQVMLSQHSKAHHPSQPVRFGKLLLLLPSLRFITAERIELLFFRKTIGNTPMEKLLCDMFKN
Sequence of Nonstructural protein 1 (Q194T2 whole entry): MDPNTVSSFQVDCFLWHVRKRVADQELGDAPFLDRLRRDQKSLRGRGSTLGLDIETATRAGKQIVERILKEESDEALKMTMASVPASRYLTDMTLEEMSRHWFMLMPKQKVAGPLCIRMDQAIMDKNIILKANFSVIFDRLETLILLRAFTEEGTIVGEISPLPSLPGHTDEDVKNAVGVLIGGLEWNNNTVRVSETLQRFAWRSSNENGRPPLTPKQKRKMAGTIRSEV
Sequence of Large T antigen (P03070 whole entry): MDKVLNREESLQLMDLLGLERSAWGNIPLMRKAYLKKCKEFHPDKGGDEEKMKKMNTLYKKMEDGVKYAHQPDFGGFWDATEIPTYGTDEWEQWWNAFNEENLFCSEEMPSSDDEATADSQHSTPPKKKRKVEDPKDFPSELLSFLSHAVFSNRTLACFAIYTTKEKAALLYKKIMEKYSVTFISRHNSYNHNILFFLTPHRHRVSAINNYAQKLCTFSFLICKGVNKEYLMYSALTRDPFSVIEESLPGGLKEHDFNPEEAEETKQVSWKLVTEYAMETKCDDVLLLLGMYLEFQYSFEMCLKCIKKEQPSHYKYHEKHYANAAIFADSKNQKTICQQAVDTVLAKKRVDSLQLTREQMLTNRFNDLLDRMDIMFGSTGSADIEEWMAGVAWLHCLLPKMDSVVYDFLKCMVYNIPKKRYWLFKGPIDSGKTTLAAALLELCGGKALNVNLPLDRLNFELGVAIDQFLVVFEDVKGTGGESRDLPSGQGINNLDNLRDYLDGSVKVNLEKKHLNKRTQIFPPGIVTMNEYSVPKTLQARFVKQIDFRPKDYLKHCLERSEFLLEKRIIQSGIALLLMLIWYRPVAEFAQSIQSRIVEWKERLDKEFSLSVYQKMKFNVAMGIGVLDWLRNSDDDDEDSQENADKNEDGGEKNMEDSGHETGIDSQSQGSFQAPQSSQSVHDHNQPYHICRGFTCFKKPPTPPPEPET
Sequence of Cytochrome P450 2C9 (P11712 whole entry): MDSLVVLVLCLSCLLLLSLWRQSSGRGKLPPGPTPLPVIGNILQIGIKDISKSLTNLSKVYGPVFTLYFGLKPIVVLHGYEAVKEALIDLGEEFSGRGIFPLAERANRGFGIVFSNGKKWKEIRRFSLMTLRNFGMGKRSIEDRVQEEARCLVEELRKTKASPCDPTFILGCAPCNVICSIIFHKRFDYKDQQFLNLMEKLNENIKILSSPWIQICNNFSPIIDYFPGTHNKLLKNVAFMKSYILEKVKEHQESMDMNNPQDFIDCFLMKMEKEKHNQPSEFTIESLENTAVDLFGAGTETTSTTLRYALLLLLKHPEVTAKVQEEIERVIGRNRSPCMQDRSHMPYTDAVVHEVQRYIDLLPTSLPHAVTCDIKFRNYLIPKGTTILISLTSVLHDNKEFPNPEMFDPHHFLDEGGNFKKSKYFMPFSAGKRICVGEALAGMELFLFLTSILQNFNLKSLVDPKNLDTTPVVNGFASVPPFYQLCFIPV

Q: For `CC(=O)Nc1ccc(Nc2cc([N+](=O)[O-])cc(Cl)[n+]2[O-])cc1`, which IC50 [1] is on record?
A: 5.74 µM (active)

Q: And the IC50 [2]?
A: 35.9 µM (inactive)

Q: What about the IC50 (Steroidogenic factor 1) of the same compound?
A: 1.56 µM (active)

Q: Which results are given for `CC1CCN(S(=O)(=O)c2ccc(NC(=O)Cn3nnc(-c4ccccc4F)n3)cc2)CC1`?
A: IC50 (Albumin): > 94.1 µM (inactive); EC50 [3]: > 60 µM (not active); EC50 [4]: 2.23 µM (active)

Q: Which IC50 (Interleukin-8) does the source give for `NC(=S)N1OC[C@@H]2COc3ccc4ccccc4c3[C@@H]21` here?
A: 8.34 µM (active)

Q: What does the source list for `COc1cc(CN2CCc3ccccc3C2)cc([N+](=O)[O-])c1O`?
A: EC50 [5]: 1.01 µM (active); IC50 [6]: 6.77 µM (active); EC50 (cells [7]): > 29.9 µM (inactive); IC50 (cells [8]): > 29.9 µM (inactive)

Q: Which IC50 [1] does the source give for `CC(Oc1ccc(S(=O)(=O)N2CCCC2)cc1[N+](=O)[O-])C(=O)NC(C)c1ccccc1` (stereo not given) here?
A: 11.8 µM (inactive)

Q: What about the IC50 [2] of the same compound?
A: 20.1 µM (inactive)

Q: And the IC50 (Steroidogenic factor 1)?
A: 7.26 µM (active)

Q: For `COC(=O)Nc1ccc(S(=O)(=O)NNC(=O)c2c(O)c3ccccc3[nH]c2=O)cc1`, which IC50 (Albumin) is on record?
A: > 94.1 µM (inactive)

Q: With `O=C(Nc1cc(N2CCOCC2)ncn1)c1ccccc1` as the compound, how does the IC50 (Protein Wnt-3a) read?
A: > 21.8 µM (inactive)

Q: For `O=C(Cc1ccc(S(=O)(=O)N2CCCC2)s1)Nc1cccc([N+](=O)[O-])c1`, which IC50 [1] is on record?
A: 13 µM (inactive)

Q: And the IC50 [2]?
A: 35.9 µM (inactive)

Q: What about the IC50 (Steroidogenic factor 1) of the same compound?
A: 6.79 µM (active)

Q: What does the source list for `COc1cc2c(oc(=O)c3cc(C)cc(OC)c32)c2c(C3OC(C)C(O)C(C)(O)C3O)ccc(O)c12` (stereo not given)?
A: IC50 [9]: 12.7 µM (inactive); GI50 (P388/ADR): 0.219 µM (active); GI50 (SN12K1): 0.349 µM (active); GI50 (P388): 0.171 µM (active); AC50 [10]: 18.8 µM (active)

Q: What does the source list for `O=C(O)c1ccc(NC2=C/C(=N/S(=O)(=O)c3cccs3)c3ccccc3C2=O)cc1`?
A: IC50 (Genome polyprotein): 58.1 µM (active); IC50 [11]: 0.817 µM (active); IC50 [12]: 4.82 µM (active)

Q: With `CN(C)C(=O)c1cccc(-c2cnc3sc(NCc4ccc5c(c4)OCO5)nn23)c1` as the compound, how does the AC50 [13] read?
A: 66.1 µM (active)

Q: And the IC50 (Interleukin-8)?
A: 11.8 µM (inactive)

Q: And the AC50 [14]?
A: 3.03 µM (active)

Q: What about the AC50 [15] of the same compound?
A: 4.54 µM (active)

Q: And the AC50 [16]?
A: 4.18 µM (active)

Q: What about the AC50 [17] of the same compound?
A: 4.47 µM (active)

Q: Which IC50 (Protein Wnt-3a) does the source give for `Cc1nc(NC(=O)c2ccccc2)cc(N2CCCCC2)n1` here?
A: > 21.8 µM (inactive)

Q: Which IC50 (Protein Wnt-3a) does the source give for `O=C(Nc1cc(N2CCSCC2)ncn1)c1ccccc1` here?
A: > 21.8 µM (inactive)

Q: For `O=C(N/N=C/c1cccc([N+](=O)[O-])c1O)c1cccs1`, which IC50 (Albumin) is on record?
A: > 94.1 µM (inactive)

Q: What about the IC50 (Nonstructural protein 1) of the same compound?
A: 7.41 µM (active)

Q: And the CC50 [18]?
A: 32.4 µM (active)

Q: What does the source list for `CCOc1ccc(/C=N/CC(O)c2ccccc2)cc1` (stereo not given)?
A: EC50 [5]: 0.769 µM (active); IC50 [6]: 3.27 µM (active); EC50 (cells [7]): > 29.9 µM (inactive); IC50 (cells [8]): > 29.9 µM (inactive)

Q: For `COc1ccc(C(=O)NNC(=O)CSc2nnc(COc3ccc4ccccc4c3)n2C)cc1`, which EC50 [5] is on record?
A: > 29.9 µM (inactive)

Q: And the AC50 (Cytochrome P450 2C9)?
A: inconclusive

Q: What about the IC50 [6] of the same compound?
A: > 29.9 µM (inactive)

Q: What about the EC50 (cells [7]) of the same compound?
A: > 29.9 µM (inactive)

Q: What about the IC50 (cells [8]) of the same compound?
A: > 29.9 µM (inactive)

Q: What does the source list for `COc1cc(/C=C2\SC(=N)NC2=O)ccc1O`?
A: IC50 (Large T antigen): 5.02 µM (active); IC50 [19]: 11.8 µM (active); CC50 [20]: 69.1 µM (active)

Source: ChEMBL document CHEMBL1201862, “PubChem BioAssay data set” (2004)
